From patent US9260499B2, “Tumor antigen peptide and use thereof” (SAPPORO MEDICAL UNIVERSITY, priority 2008, dated 2016)
Like-named read-outs stand apart in the source and are kept apart here.

Tests used:
[1] = molecular target: HLA-A0201 (Homo sapiens, UniProt P04439, D140Y/D185E/D98H/E176V/E277Q/G131W/G231S/I119V/I121R/I166T/I218V/L300P/L318F/N151K/N90K/P208A/P217A/Q86G/Q94H/R138H/R169H/T345S); assay: HLA class I stabilization assay, binding affinity to HLA-A0201
[2] = system: lymphocytes from PBF-positive patients with osteosarcoma; assay: Frequency analysis of antigenic peptide-specific CTLs (LD/MLPC, HLA-A0201/PBF tetramer staining); type: cell-based, human
Protocol: Lymphocytes from five PBF-positive patients with osteosarcoma were subjected to ,mixed lymphocyte peptide culture under conditions of limiting dilution (limiting dilution/mixed lymphocyte peptide culture; LD/MLPC) to induce peptide-specific CTLs (Cancer Sci., 2008, 99:368-375, which is incorporated herein by reference). Regarding two patients: Patient Nos. 1 ,and 2, 50 ml of peripheral blood was collected to isolate peripheral blood mononuclear cells (PBMCs). PBMCs were cultured for 60 minutes at room temperature in AIM-V medium (Invitrogen) containing 1% human serum and supplemented with 50 μg/ml of the peptide shown in SEQ ID NO:4. PBMCs which were pulsed with the peptide were plated at 2×10^5 cells/200 μl/well on a U-bottomed 96-well microtiter plate and cultured in AIM-V medium containing 10% human serum, 20 U/ml IL-2, and 10 ng/ml IL-7. Seven days after the culture was started, half of the cultured medium in each well was replaced with AIM-V medium containing IL-2, IL-7, and the peptide shown in SEQ ID NO:4 in order to perform the second stimulation. Cells on 14 to 21 days after the culture was started were used for frequency analysis with a tetramer.
Regarding three patients: Patient Nos. 3, 4, and 5, CD8-positive cells were isolated from PBMCs using magnetic anti-CD8 microbeads (Miltenyi Biotec). CD8-positive cells were pulsed for 60 minutes with the peptide shown in SEQ ID NO:4 and inactivated by radiation. 1.0×10^5 to 2.1×10^5 CD8-positive cells/well were cultured on a 48-well microtiter plate using AIM-V medium containing 10% human serum, 20 U/ml IL-2, and 10 ng/ml IL-7, together with 2×10^5 to 5×10^5 cells/well of irradiated, peptide-pulsed CD8-positive cells. After 7 days of the culture, the irradiated peptide-pulsed CD8-positive cells were added as described above, in order to perform the second stimulation. Cells on 13 to 23 days after the culture was started were used for frequency analysis with a tetramer. A PE-labeled HLA-A0201/PBF tetramer (MBL) which was prepared using the peptide shown in SEQ ID NO:4 was used for the analysis.
An FITC-labeled HLA-A0201/HIV tetramer (MBL) which was prepared using an HIV-derived peptide was used as negative control. Some of the lymphocytes which were cultured using the LD/MLPC method were cultured at room temperature for 15 minutes with the PE-labeled HLA-A0201/PBF tetramer or with the FITC-labeled HLA-A0201/HIV tetramer (10 nM each, in 25 μl of PBS), followed by staining. Further, a PE-Cy5-labeled anti-CD8 antibody ,eBioscience) was added and incubated for 15 minutes, followed by staining. Then, cells were washed twice with PBS, fixed in 0.5% formalin, and analyzed in a flow cytometer FACScan. Living cells which were stained both with the PE-Cy5-labeled anti-CD8 antibody and with the PE-labeled HLA-A0201/PBF tetramer were considered to be tetramer-positive and peptide-specific CTLs. The frequency of CTLs specific for a peptide shown in SEQ ID ,NO:4 was determined using the following equation: Frequency=the number of tetramer-positive wells/(the total number of the wells examined×the number of CD8-positive cells per well at the start of LD/MLPC). Of the five patients, three patients: Patient Nos. […], had frequencies of 5×10^−6, 2×10^−7, and 5×10^−7, respectively.

Substance	% MFI increase±standard deviation (SD) [1] [%]	% MFI increase±standard deviation (SD) ([1]; triplicate, FITC-labeled anti-HLA-A2 antibody BB7.2, flow cytometry) [%]	Frequency of CTLs specific for the peptide ([2]; Patient No. 1)	Number of tetramer-positive wells ([2]; Patient No. 1, PBMCs, 18 wells tested, 200,000 initial cells per well, 25% CD8)	Frequency of CTLs specific for the peptide ([2]; Patient No. 2)	Number of tetramer-positive wells ([2]; Patient No. 2, PBMCs, 46 wells tested, 200,000 initial cells per well, 24% CD8)	Frequency of CTLs specific for the peptide ([2]; Patient No. 3)	Number of tetramer-positive wells ([2]; Patient No. 3, CD8-positive cells, 56 wells tested, 210,000 initial cells per well, 99% CD8)	Frequency of CTLs specific for the peptide ([2]; Patient No. 4)	Number of tetramer-positive wells ([2]; Patient No. 4, CD8-positive cells, 36 wells tested, 150,000 initial cells per well, 99% CD8)	Frequency of CTLs specific for the peptide ([2]; Patient No. 5)	Number of tetramer-positive wells ([2]; Patient No. 5, CD8-positive cells, 103 wells tested, 100,000 initial cells per well, 99% CD8)
RGYVYQGL [SEQ ID NO:6, reference compound]	5.6±8.2	–	–	–	–	–	–	–	–	–	–	–
SEQ ID NO:4: fragment peptide of tumor antigen protein PBF (papillomavirus binding factor) binding to HLA-A2 antigen; synthesized by the Fmoc method (ALPSFQIPV)	–	74.5±6.6	<1 × 10^−6	0	5×10^−6	10	2×10^−7	2	5×10^−7	3	<1 × 10^−7	0
